In data set [1] the test system is mice. Conditions: comparison anesthetics, disclosed in Japanese Patent Application Laid Open No. 50-154410, cited from earlier work; for T. I.(mouse): LD50/HD50.
Data set [2] has as its system mice. Conditions: comparison anesthetics, disclosed in Japanese Patent Application Laid Open No. 50-154410; cited from earlier work.

Molecules are shown by their SMILES. Counter-ions that a name gives are not always drawn.

What is called LD50 is the dose expected to kill half of the subjects tested. Broadly, the melting point is the temperature of the solid-liquid transition.

For the compound `CC(C)c1cccc(C(C)C)c1O` [Propofol, 2,6-diisopropylphenol], in the data set with mice [1], the “T. I.(mouse)” value is listed as 4.14 and the median lethal dose (LD50) was 56 mg/kg. Also, in the data set on mice [2], the HD50 was 13.5 mg/kg.
For the compound `Cc1cc2c(cc1C)C(C(=O)O)N(c1cccc(F)c1)C2=O` (centres unmarked) (as salt: hydrochloride), the melting point fell in the range of 152 to 157.5 °C.
As for `CCCOC(=O)CC1c2cc(C)c(C)cc2C(=O)N1c1cccnc1` (centres unmarked) (as salt: hydrochloride), the melting point lay within 201.5 to 208.5 °C.
Same read-out and setting: the value for `Cc1cc2c(cc1C)C(OCC(=O)N1CCN(C)CC1)N(c1cccc(F)c1)C2=O` (centres unmarked) (as salt: hydrochloride) was 138 to 144.5 °C.
As for `Cc1cc2c(cc1C)C(OCC(=O)O)N(c1cccc(F)c1)C2=O` (centres unmarked) (as salt: hydrochloride), the melting point fell in the range of 145 to 146 °C.
On the same count and under the same terms, then `CCOC(=O)CC1c2cc(C)c(C)cc2C(=S)N1c1cccnc1` (centres unmarked), with 158 to 158.5 °C.
Take `CCCC(C)C1(CC)C(=O)NC(=S)NC1=O` (centres unmarked) [Thiopental Sodium, thiopental sodium]: in the data set on mice [1], the “T. I.(mouse)” value was 4.26 and the LD50 is 100 mg/kg. The HD50 in the data set with mice [2] is 23.5 mg/kg.

Source of the values: US7521451B2, “Isoindoline derivative” (Maruishi Pharmaceutical Co., Ltd., priority 2002, dated 2009).
